The results in this text go back to US11091488B2 (MISSION THERAPEUTICS LIMITED, priority 2015, dated 2021).

Sequence of USP30 (Q70CQ3 57-517): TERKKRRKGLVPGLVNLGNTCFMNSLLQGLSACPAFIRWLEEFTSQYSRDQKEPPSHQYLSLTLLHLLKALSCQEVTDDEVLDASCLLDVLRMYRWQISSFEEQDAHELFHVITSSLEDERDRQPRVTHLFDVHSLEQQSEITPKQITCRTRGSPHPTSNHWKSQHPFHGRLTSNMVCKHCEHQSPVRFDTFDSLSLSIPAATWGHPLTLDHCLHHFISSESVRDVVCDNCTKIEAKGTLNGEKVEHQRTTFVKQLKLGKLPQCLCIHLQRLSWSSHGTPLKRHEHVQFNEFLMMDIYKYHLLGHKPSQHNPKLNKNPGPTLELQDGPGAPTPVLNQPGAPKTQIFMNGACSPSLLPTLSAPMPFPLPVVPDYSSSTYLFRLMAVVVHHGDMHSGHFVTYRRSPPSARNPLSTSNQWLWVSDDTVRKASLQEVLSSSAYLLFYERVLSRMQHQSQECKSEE

The experiment has as its target USP30 (Homo sapiens (Human), UniProt Q70CQ3). Put plainly: USP30 biochemical IC50 assay. As to conditions: read-out: IC50 range; fluorescence polarisation, TAMRA labelled peptide linked to ubiquitin; 30 min pre-incubation, read after 2 hr. (In general: Polarisation of emitted light reports the rotation of a fluorescent probe.)
Procedure: USP30 Biochemical IC50 Assay
Dilution plates were prepared at 21 times the final concentration (2100 μM for a final concentration of 100 μM) in 50% DMSO in a 96-well polypropylene V-bottom plate (Greiner #651201). A typical 8-point dilution series to be 100, 30, 10, 3, 1, 0.3, 0.1, 0.03 μM final. Reactions were performed in duplicate in black 384 well plates (small volume, Greiner 784076) in a final reaction volume of 21 μl. Either 1 μl of 50% DMSO or diluted compound was added to the plate. USP30 was diluted in reaction buffer (40 mM Tris, pH 7.5, 0.005% Tween 20, 0.5 mg/ml BSA, 5 mM—beta-mercaptoethanol) to the equivalent of 0.05 μl/well and 10 μl of diluted USP30 was added to the compound. Enzyme and compound were incubated for 30 min at room temp. Reactions were initiated by the addition of 50 nM of TAMRA labelled peptide linked to ubiquitin via an iso-peptide bond as fluorescence polarisation substrate. Reactions were read immediately after addition of substrate and following a 2 hr incubation at room temperature. Readings were performed on a Pherastar Plus (BMG Labtech). λ Excitation 540 nm; λ Emission 590 nm.
On to `COc1cccc(-c2cccc(N3CCN([C@@H]4CCN(C#N)C4)S3(=O)=O)c2)c1` [Example 16, (R)-3-(5-(3′-methoxy-[1,1′-biphenyl]-3-yl)-1,1-dioxido-1,2,5-thiadiazolidin-2-yl)pyrrolidine-1-carbonitrile], for which the 50% inhibitory concentration (IC50) (usually the concentration that gives 50% inhibition) is less than 100 nM.

Take `COc1ccccc1-c1ccc(N2CCN([C@@H]3CCN(C#N)C3)S2(=O)=O)cc1` [Example 17, (R)-3-(5-(2′-methoxy-[1,1′-biphenyl]-4-yl)-1,1-dioxido-1,2,5-thiadiazolidin-2-yl)pyrrolidine-l-carbonitrile]: the IC50 is less than 100 nM.

Turning to `N#CN1CC[C@@H](N2CCN(c3ccc(-c4ccncc4)cc3)S2(=O)=O)C1` [Example 18, (R)-3-(1,1-dioxido-5-(4-(pyridin-4-yl)phenyl)-1,2,5-thiadiazolidin-2-yl)pyrrolidine-1-carbonitrile], the IC50 was less than 100 nM.

As for `N#CN1CC[C@@H](N2CCN(c3cccc(-c4ccncc4)c3)S2(=O)=O)C1` [Example 19, (R)-3-(1,1-dioxido-5-(3-(pyridin-4-yl)phenyl)-1,2,5-thiadiazolidin-2-yl)pyrrolidine-1-carbonitrile], the IC50 is less than 100 nM.

For the molecule `Cn1cc(-c2cccc(N3CCN([C@@H]4CCN(C#N)C4)S3(=O)=O)c2)cn1` [Example 20, (R)-3-(5-(3-(1-methyl-1H-pyrazol-4-yl)phenyl)-1,1-dioxido-1,2,5-thiadiazolidin-2-yl)pyrrolidine-1-corbonitrile], the IC50 was less than 100 nM.

`Cn1cc(-c2cccc(N3CCCN([C@@H]4CCN(C#N)C4)S3(=O)=O)c2)cn1` [Example 21, (R)-3-(6-(3-(1-methyl-1H-pyrazol-4-yl)phenyl)-1,1-dioxido-1,2,6-thiadiazinan-2-yl)pyrrolidine-1-carbonitrile]: the IC50 was in the range of 100 to 1000 nM.

Turning to `N#CN1CC[C@@H](N2CCN(c3ccc(N4CCOCC4)cc3)S2(=O)=O)C1` [Example 22, (R)-3-(5-(4-morpholinophenyl)-1,1-dioxido-1,2,5-thiadiazolidin-2-yl)pyrrolidine-1-carbonitrile], the half-inhibitory concentration (IC50) lay within 100 to 1000 nM.

Turning to `N#CN1CC[C@@H](N2CCN(c3cccc(N4CCOCC4)c3)S2(=O)=O)C1` [Example 24, (R)-3-(5-(3-morpholinophenyl)-1,1-dioxido-1,2,5-thiadiazolidin-2-yl)pyrrolidine-1-carbonitrile], the IC50 is less than 100 nM.

In the case of `N#CN1CC[C@@H](N2CCCN(c3cccc(N4CCOCC4)c3)S2(=O)=O)C1` [Example 25, (R)-3-(6-(3-morpholinophenyl)-1,1-dioxido-1,2,6-thiadiazinan-2-yl)pyrrolidine-1-carbonitrile], the IC50 was 1000 to 10000 nM.

On to `N#CN1CC[C@@H](N2CCN(c3cc(-c4ccccc4)no3)S2(=O)=O)C1` [Example 26, (R)-3-(1,1-dioxido-5-(3-phenylisoxazol-5-yl)-1,2,5-thiadiazolidin-2-yl)pyrrolidine-1-carbonitrile], for which the half-maximal inhibitory concentration (IC50) was less than 100 nM.

On to `N#CN1CC[C@@H](N2CCCN(c3cc(-c4ccccc4)no3)S2(=O)=O)C1` [Example 27, (R)-3-(1,1-dioxido-6-(3-phenylisoxazol-5-yl)-1,2,6-thiadiazinan-2-yl)pyrrolidine-1-carbonitrile], for which the IC50 lay within 100 to 1000 nM.

As for `N#CN1CC[C@@H](N2CCN(c3cc(-c4ccccc4)n[nH]3)S2(=O)=O)C1` [Example 28, (R)-3-(1,1-dioxido-5-(3-phenyl-1H-pyrazol-5-yl)-1,2,5-thiadiazolidin-2-yl)pyrrolidine-1-carbonitrile], the concentration for half-maximal inhibition (IC50) is less than 100 nM.

Regarding `N#CN1CC[C@@H](N2CCCN(c3cc(-c4ccccc4)n[nH]3)S2(=O)=O)C1` [Example 29, (R)-3-(1,1-dioxido-6-(3-phenyl-1H-pyrazol-5-yl)-l,2,6-thiadiazinan-2-yl)pyrrolidine-1-carbonitrile], the half-maximal inhibitory concentration (IC50) fell in the range of 100 to 1000 nM.

Take `N#CN1CC[C@@H](NS(=O)(=O)N2CCCn3nc(-c4ccccc4)cc32)C1` [Example 30, (R)—N-(1-cyanopyrrolidin-3-yl)-2-phenyl-6,7-dihydropyrazolo[1,5-a]pyrimidine-4(5H)-sulfonamide]: the IC50 fell in the range of 100 to 1000 nM.

As to `N#CN1CC[C@H](N2CCN(c3ccccc3)S2(=O)=O)C1` [Example 31, (S)-3-(1,1-dioxido-5-phenyl-1,2,5-thiadiazolidin-2-yl)pyrrolidine-1-carbonitrile], the concentration for half-maximal inhibition (IC50) is 1000 to 10000 nM.

Regarding `N#CN1CC[C@H](N2CCN(c3ccc(-c4ccncc4)cc3)S2(=O)=O)C1` [Example 32, (S)-3-(1,1-dioxido-5-(4-(pyridin-4-yl)phenyl)-1,2,5-thiadiazolidin-2-yl)pyrrolidine-1-carbonitrile], the IC50 is less than 100 nM.

For the molecule `N#CN1CC[C@H](N2CCN(c3cccc(-c4ccncc4)c3)S2(=O)=O)C1` [Example 33, (S)-3-(1,1-dioxido-5-(3-(pyridin-4-yl)phenyl)-1,2,5-thiadiazolidin-2-yl)pyrrolidine-l-carbonitrile], the 50% inhibitory concentration (IC50) is less than 100 nM.

`N#CN1CC[C@H](N2CCN(c3ccc(-c4ccccc4)cc3)S2(=O)=O)C1` [Example 34]: the IC50 is less than 100 nM.

As to `N#CN1CC[C@H](N2CCN(c3cccc(-c4ccccc4)c3)S2(=O)=O)C1` [Example 35, (S)-3-(5-([1,1′-biphenyl]-3-yl)-l,1-dioxido-1,2,5-thiadiozolidin-2-yl)pyrrolidine-1-carbonitrile], the IC50 was less than 100 nM.

As for `N#CN1CC[C@H](N2CCN(c3cccc(-c4ccccc4)n3)S2(=O)=O)C1` [Example 36, (S)-3-(1,1-dioxido-5-(6-phenylpyridin-2-yl)-1,2,5-thiadiazolidin-2-yl)pyrrolidine-1-carbonitrile], the IC50 is less than 100 nM.

For `N#CN1CCC(N2CCN(c3ccccc3)S2(=O)=O)C1` (stereo not drawn) [Example 37, 3-(1,1-dioxido-5-phenyl-1,2,5-thiadiazolidin-2-yl)pyrrolidine-1-carbonitrile], the half-maximal inhibitory concentration (IC50) was in the range of 100 to 1000 nM.

Take `N#CN1CCC(N2CCCN(c3ccccc3)S2(=O)=O)C1` (stereo not drawn) [Example 38, 3-(1,1-dioxido-6-phenyl-1,2,6-thiadiazinan-2-yl)pyrrolidine-1-carbonitrile]: the IC50 lay within 100 to 1000 nM.

As for `C[C@H]1CN(C#N)C[C@@H]1N1CCN(c2ccc(-c3ccccc3)cc2)S1(=O)=O` [Example 39, (3R,4S)-3-(5-([1,1′-biphenyl]-4-yl)-1,1-dioxido-1,2,5-thiadiazolidin-2-yl)-4-methylpyrrolidine-1-carbonitrile], the half-maximal inhibitory concentration (IC50) is less than 100 nM.

Turning to `C[C@H]1CN(C#N)C[C@@H]1N1CCN(c2cccc(N3CCN(C)CC3)c2)S1(=O)=O` [Example 40, (3S,4R)-3-methyl-4-(5-(3-(4-methylpiperazin-1-yl)phenyl)-1,1-dioxido-1,2,5-thiadiazolidin-2-yl)pyrrolidine-1-carbonitrile], the IC50 lay within 100 to 1000 nM.

On to `C[C@H]1CN(C#N)C[C@@H]1N1CCN(c2cccc(N3CCOCC3)c2)S1(=O)=O` [Example 41, (3S,4R)-3-methyl-4-(5-(3-morpholinophenyl)-1,1-dioxido-1,2,5-thiadiazolidin-2-yl)pyrrolidine-1-carbonitrile], for which the IC50 is 100 to 1000 nM.

Consider `COc1ccc(N2CCN([C@@H]3CCN(C#N)C3)S2(=O)=O)cc1-c1ccccc1` [Example 42, (R)-3-(5-(6-methoxy-[1,1′-biphenyl]-3-yl)-1,1-dioxido-1,2,5-thiadiazolidin-2-yl)pyrrolidine-1-carbonitrile], for which the half-maximal inhibitory concentration (IC50) was less than 100 nM.

In the case of `N#CN1CC[C@@H](N2CCN(c3ccc4nc(C(F)(F)F)[nH]c4c3)S2(=O)=O)C1` [Example 44, (R)-3-(1,1-dioxido-5-(2-(trifluoromethyl)-1H-benzo[d]imidazol-5-yl)-1,2,5-thiadiazolidin-2-yl)pyrrolidine-1-carbonitrile], the 50% inhibitory concentration (IC50) was in the range of 100 to 1000 nM.

For `N#CN1CC[C@@H](NS(=O)(=O)Nc2ccc3nc(C(F)(F)F)[nH]c3c2)C1` [Example 45], the half-maximal inhibitory concentration (IC50) fell in the range of 1000 to 10000 nM.

`N#CN1CC[C@@H](N2CCCN(c3ccc4nc(C(F)(F)F)[nH]c4c3)S2(=O)=O)C1` [Example 46, (R)-3-(1,1-dioxido-6-(2-(trifluoromethyl)-1H-benzo[d]imidazol-6-yl)-1,2,6-thiadiazinan-2-yl)pyrrolidine-1-carbonitrile]: the concentration for half-maximal inhibition (IC50) lay within 1000 to 10000 nM.

As for `N#CN1CC[C@H](N2CCN(c3cccc(-c4ccccn4)c3)S2(=O)=O)C1` [Example 47, (S)-3-(1,1-dioxido-5-(3-(pyridin-2-yl)phenyl)-1,2,5-thiadiazolidin-2-yl)pyrrolidine-1-carbonitrile], the IC50 was 100 to 1000 nM.

For `N#CN1CC[C@H](N2CCN(c3cccc(-c4cccnc4)c3)S2(=O)=O)C1` [Example 48, (S)-3-(1,1-dioxido-5-(3-(pyridin-3-yl)phenyl)-1,2,5-thiadiazolidin-2-yl)pyrrolidine-1-carbonitrile], the IC50 fell in the range of 100 to 1000 nM.

Turning to `N#CN1CC[C@@H](N2CCN(c3ccnc(N4CCOCC4)c3)S2(=O)=O)C1` [Example 50, (R)-3-(5-(2-morpholinopyridin-4-yl)-1,1-dioxido-1,2,5-thiadiazolidin-2-yl)pyrrolidine-1-carbonitrile], the concentration for half-maximal inhibition (IC50) was less than 100 nM.

In the case of `N#CN1CC[C@@H](N2CCN(c3nccc(N4CCOCC4)n3)S2(=O)=O)C1` [Example 51, (R)-3-(5-(4-morpholinopyrimidin-2-yl)-1,1-dioxido-1,2,5-thiadiazolidin-2-yl)pyrrolidine-1-carbonitrile], the IC50 was in the range of 100 to 1000 nM.

For the molecule `CN1CCN(c2cc(N3CCN([C@@H]4CCN(C#N)C4)S3(=O)=O)ccn2)CC1` [Example 52, (R)-3-(5-(2-(4-methylpiperazin-1-yl)pyridin-4-yl)-1,1-dioxido-1,2,5-thiadiazolidin-2-yl)pyrrolidine-1-carbonitrile], the IC50 lay within 100 to 1000 nM.

Turning to `CO[C@@H]1CCN(c2cccc(N3CCN([C@@H]4CCN(C#N)C4)S3(=O)=O)c2)C1` [Example 53, (R)-3-(5-(3-((R)-3-methoxypyrrolidin-1-yl)phenyl)-1,1-dioxido-1,2,5-thiadiazolidin-2-yl)pyrrolidine-1-carbonitrile], the IC50 is 100 to 1000 nM.

As to `CO[C@@H]1CCN(c2cc(N3CCN([C@@H]4CCN(C#N)C4)S3(=O)=O)ccn2)C1` [Example 54, (R)-3-(5-(2-((R)-3-methoxypyrrolidin-1-yl)pyridin-4-yl)-1,1-dioxido-1,2,5-thiadiazolidin-2-yl)pyrrolidine-1-carbonitrile], the IC50 was in the range of 100 to 1000 nM.
